Toxic doses and inconclusive results are not listed.
Test system: L1210 leukemia ip in BDF1 mice, survival T/C
Assay: NCI In Vivo Anticancer Drug Screen. Data for tumor model L1210 Leukemia (intraperitoneal) in B6D2F1 (BDF1) mice
Settings: endpoint: mean survival time, higher = longer survival
How it was run: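 Transplanted-tumor mice were given test agent; controls received vehicle only. Survival readings from the two groups were divided (treated over control).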

[1] = dose: 100.0 mg/kg/injection, schedule: Q01DX009 (ip), vehicle: Klucel (hydroxypropylcellulose) (HPC)
[2] = dose: 100.0 mg/kg/injection, schedule: Q04DX003 (ip), vehicle: Klucel (hydroxypropylcellulose) (HPC)
[3] = dose: 200.0 mg/kg/injection, schedule: Q01DX009 (ip), vehicle: Klucel (hydroxypropylcellulose) (HPC)
[4] = dose: 200.0 mg/kg/injection, schedule: Q04DX003 (ip), vehicle: Klucel (hydroxypropylcellulose) (HPC)
[5] = dose: 400.0 mg/kg/injection, schedule: Q01DX009 (ip), vehicle: Klucel (hydroxypropylcellulose) (HPC)
[6] = dose: 400.0 mg/kg/injection, schedule: Q04DX003 (ip), vehicle: Klucel (hydroxypropylcellulose) (HPC)
[7] = dose: 100.0 mg/kg/injection, schedule: Q04DX002 (ip), vehicle: other
[8] = dose: 200.0 mg/kg/injection, schedule: Q04DX002 (ip), vehicle: other
[9] = dose: 400.0 mg/kg/injection, schedule: Q04DX002 (ip), vehicle: other
[10] = dose: 50.0 mg/kg/injection, schedule: Q01DX009 (ip), vehicle: Klucel (hydroxypropylcellulose) (HPC)
[11] = dose: 100.0 mg/kg/injection, schedule: Q01DX001 (ip), vehicle: saline
[12] = dose: 200.0 mg/kg/injection, schedule: Q01DX001 (ip), vehicle: saline
[13] = dose: 400.0 mg/kg/injection, schedule: Q01DX001 (ip), vehicle: saline

## O=C(C[P+](c1ccccc1)(c1ccccc1)c1ccccc1)c1ccc(Br)cc1
dose: 50.0 mg/kg/injection, schedule: Q01DX001 (ip), vehicle: other
  T/C: 100 % of control
dose: 100.0 mg/kg/injection, schedule: Q01DX001 (ip), vehicle: other
  T/C: 87 % of control
dose: 200.0 mg/kg/injection, schedule: Q01DX001 (ip), vehicle: other
  T/C: 103 % of control
dose: 400.0 mg/kg/injection, schedule: Q01DX001 (ip), vehicle: other
  T/C: 105 % of control

## CCOC(=O)NCc1ccccc1
[1]
  T/C: 101 % of control
[2]
  T/C: 98 % of control
[3]
  T/C: 106 % of control
[4]
  T/C: 95 % of control
[5]
  T/C: 95 % of control
[6]
  T/C: 101 % of control

## CC[Si](CC)(CC)c1ccc(CCNCCS)s1
dose: 75.0 mg/kg/injection, schedule: Q04DX003 (ip), vehicle: saline
  T/C: 95 % of control
dose: 150.0 mg/kg/injection, schedule: Q04DX003 (ip), vehicle: saline
  T/C: 93 % of control

## CCCCCS(=O)(=O)N1CCCCCC1
[7]
  T/C: 112 % of control
[8]
  T/C: 87 % of control
[9]
  T/C: 87 % of control

## C=CCOC1C=CC=CC=C1
dose: 25.0 mg/kg/injection, schedule: Q01DX009 (ip), vehicle: Klucel (hydroxypropylcellulose) (HPC)
  T/C: 100 % of control
[10]
  T/C: 100 % of control
[2]
  T/C: 94 % of control

## O=S(=O)(O)c1ccccc1.O=S(=O)(O)c1ccccc1.[NH-]C1CCCCC1[NH-].[Pt+2]
dose: 0.5 mg/kg/injection, schedule: Q04DX003 (ip), vehicle: dextrose
  T/C: 112 % of control
dose: 2.0 mg/kg/injection, schedule: Q04DX003 (ip), vehicle: dextrose
  T/C: 154 % of control
dose: 4.0 mg/kg/injection, schedule: Q04DX003 (ip), vehicle: dextrose
  T/C: 173 % of control
dose: 6.0 mg/kg/injection, schedule: Q04DX003 (ip), vehicle: dextrose
  T/C: 182 % of control

## O=C(O)c1ccccc1C(=O)Nc1ccccc1[N+](=O)[O-]
dose: 100.0 mg/kg/injection, schedule: Q01DX001 (ip), vehicle: saline with Tween-80
  T/C: 91 % of control
dose: 200.0 mg/kg/injection, schedule: Q01DX001 (ip), vehicle: saline with Tween-80
  T/C: 91 % of control
dose: 400.0 mg/kg/injection, schedule: Q01DX001 (ip), vehicle: saline with Tween-80
  T/C: 91 % of control

## Cn1c(C=O)cc(=O)[nH]c1=S
[10]
  T/C: 92 % of control
[1]
  T/C: 93 % of control
[2]
  T/C: 100 % of control
[3]
  T/C: 93 % of control
[4]
  T/C: 105 % of control
[6]
  T/C: 100 % of control

## C/C=C(/C)N(C(C)=O)N(C(C)=O)c1ccc([N+](=O)[O-])cc1[N+](=O)[O-]
dose: 100.0 mg/kg/injection, schedule: Q01DX009 (ip), vehicle: other
  T/C: 103 % of control
dose: 100.0 mg/kg/injection, schedule: Q04DX003 (ip), vehicle: saline
  T/C: 104 % of control
dose: 200.0 mg/kg/injection, schedule: Q01DX009 (ip), vehicle: other
  T/C: 101 % of control
dose: 200.0 mg/kg/injection, schedule: Q04DX003 (ip), vehicle: saline
  T/C: 105 % of control
dose: 400.0 mg/kg/injection, schedule: Q01DX009 (ip), vehicle: other
  T/C: 97 % of control
dose: 400.0 mg/kg/injection, schedule: Q04DX003 (ip), vehicle: saline
  T/C: 107 % of control

## CN=C1CC2CCC(C2)C1(O)c1ccccc1 (stereo not drawn)
[11]
  T/C: 101 % of control

## O=C(O)COc1ccc(/C=C/c2ccnc3ccccc23)cc1
[1]
  T/C: 94 % of control
[3]
  T/C: 99 % of control
[5]
  T/C: 86 % of control

## Cc1ccc2cccc3c2c1S(=O)(=O)c1cccc2cccc(c12)C3
[11]
  T/C: 98 % of control
[12]
  T/C: 104 % of control
[13]
  T/C: 93 % of control

## O=C1CCc2cc([N+](=O)[O-])ccc2O1
dose: 50.0 mg/kg/injection, schedule: Q01DX001 (ip), vehicle: saline
  T/C: 103 % of control
[11]
  T/C: 92 % of control
[12]
  T/C: 94 % of control
[13]
  T/C: 103 % of control

## CCOC(=O)c1cn[nH]c1/N=N/N(C)C
dose: 42.0 mg/kg/injection, schedule: Q01DX009 (ip), vehicle: carboxymethylcellulose (CMC)
  T/C: 113 % of control
dose: 178.0 mg/kg/injection, schedule: Q01DX001 (ip), vehicle: carboxymethylcellulose (CMC)
  T/C: 110 % of control
dose: 267.0 mg/kg/injection, schedule: Q01DX001 (ip), vehicle: carboxymethylcellulose (CMC)
  T/C: 112 % of control

## CCCC(F)C(Br)C(=O)O (stereo not drawn)
[7]
  T/C: 90 % of control
[8]
  T/C: 90 % of control
[9]
  T/C: 90 % of control

## Cc1ccc(C(=O)CCCCCCCCC(=O)c2ccc(C)cc2)cc1
dose: 50.0 mg/kg/injection, schedule: Q01DX009 (ip), vehicle: saline with Tween-80
  T/C: 97 % of control
dose: 100.0 mg/kg/injection, schedule: Q01DX009 (ip), vehicle: saline with Tween-80
  T/C: 89 % of control
dose: 200.0 mg/kg/injection, schedule: Q01DX009 (ip), vehicle: saline with Tween-80
  T/C: 89 % of control

## Nc1nc2c(c(=O)[nH]1)N(Cc1ccccc1)C(CNc1ccc(C(=O)NC(CCC(=O)O)C(=O)O)cc1)CN2 (stereo not drawn)
dose: 100.0 mg/kg/injection, schedule: Q01DX001 (ip), vehicle: alkali diluted with saline
  T/C: 91 % of control
dose: 200.0 mg/kg/injection, schedule: Q01DX001 (ip), vehicle: alkali diluted with saline
  T/C: 94 % of control
dose: 400.0 mg/kg/injection, schedule: Q01DX001 (ip), vehicle: alkali diluted with saline
  T/C: 100 % of control

## Cc1c(C(=O)O)nnn1-c1ccc(Cl)cc1Cl
dose: 100.0 mg/kg/injection, schedule: Q04DX002 (ip), vehicle: Klucel (hydroxypropylcellulose) (HPC)
  T/C: 97 % of control
dose: 200.0 mg/kg/injection, schedule: Q04DX002 (ip), vehicle: Klucel (hydroxypropylcellulose) (HPC)
  T/C: 101 % of control

## CN(C)C(=O)N1CCCCC1
dose: 100.0 mg/kg/injection, schedule: Q04DX002 (ip), vehicle: saline with Tween-80
  T/C: 101 % of control
dose: 200.0 mg/kg/injection, schedule: Q04DX002 (ip), vehicle: saline with Tween-80
  T/C: 93 % of control
dose: 400.0 mg/kg/injection, schedule: Q04DX002 (ip), vehicle: saline with Tween-80
  T/C: 111 % of control

## CCOC(=O)c1ccc(NC(=O)Nc2ccccc2C(F)(F)F)cc1
[1]
  T/C: 88 % of control
[3]
  T/C: 89 % of control
[5]
  T/C: 86 % of control

## O=C1OCCN1N1C(=O)CC2(CCCCC2)C1=O
dose: 50.0 mg/kg/injection, schedule: Q01DX001 (ip), vehicle: Klucel (hydroxypropylcellulose) (HPC)
  T/C: 100 % of control
dose: 100.0 mg/kg/injection, schedule: Q01DX001 (ip), vehicle: Klucel (hydroxypropylcellulose) (HPC)
  T/C: 107 % of control
dose: 200.0 mg/kg/injection, schedule: Q01DX001 (ip), vehicle: Klucel (hydroxypropylcellulose) (HPC)
  T/C: 97 % of control

## N#CC(C#N)=NNc1cccc(Cl)c1
[4]
  T/C: 96 % of control
[6]
  T/C: 101 % of control

From PubChem BioAssay AID248 (DTP/NCI, 2004)
